According to patent publication US20240360178A1, “MACROCYCLIC IMMUNOMODULATORS” (Bristol-Myers Squibb Company, priority 2021, published 2024):
Positions of bridges follow the written chain, without caps; N, C: chain ends. Non-standard residues stand in square brackets, D forms with d. Residues, ends and D or L forms follow the SMILES beside them. ξ: configuration not given here. *: point of attachment. Phe(4-COOH) = N[C@@H](Cc1ccc(C(=O)O)cc1)C(=O)O; Bip = N[C@@H](Cc1ccc(-c2ccccc2)cc1)C(=O)O; Phe(3-Me) = Cc1cccc(C[C@H](N)C(=O)O)c1; NMeF = CN[C@@H](Cc1ccccc1)C(=O)O; dTic = O=C(O)[C@H]1Cc2ccccc2CN1; Cha = N[C@@H](CC1CCCCC1)C(=O)O; Carboxymethyl = O=C(O)C*; NMeA = CN[C@@H](C)C(=O)O; Orn = NCCC[C@H](N)C(=O)O; Dab = NCC[C@H](N)C(=O)O; ξV = CC(C)C(N)C(=O)O; Sar = CNCC(=O)O

Each molecule was assayed against T1, human PD-1 (Jurkat-PD-1 cells) / PE-labeled human PD-L1-Ig (Homo sapiens, UniProt Q15116) (assay: Jurkat-PD-1 Cell Binding High-Content Screening Assay (CBA); Jurkat hPD1-PDL1 assay). Conditions: Jurkat cell line over-expressing human PD-1; PE-labeled PD-L1-Ig 20 nM final; compound incubated 2 hours at 37° C.; read-out: Jurkat HPD1-PDL1 IC50.
T1 construct: expressed in transfected cells; host or cells: Jurkat cell line over-expressing human PD-1
T1 sequence (Q15116 25-288): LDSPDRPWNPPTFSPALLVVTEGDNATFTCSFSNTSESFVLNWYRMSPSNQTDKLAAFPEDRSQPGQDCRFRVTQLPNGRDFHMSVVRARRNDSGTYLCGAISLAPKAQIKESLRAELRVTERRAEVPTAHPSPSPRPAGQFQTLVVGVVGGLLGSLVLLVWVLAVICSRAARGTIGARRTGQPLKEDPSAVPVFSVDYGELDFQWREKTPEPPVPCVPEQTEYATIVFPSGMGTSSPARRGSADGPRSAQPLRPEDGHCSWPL
How it was run: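 Jurkat cells over-expressing human PD-1, seeded in DMEM with 10% fetal calf serum, were preincubated with compound for 2 hours at 37° C. PE-labeled human PD-L1-Ig was then added at 20 nM final, and cell-bound fluorescence was read by high-content imaging.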

Q: For `CC(C)C[C@@H]1NC(=O)[C@H](CCCNC(=N)N)NC(=O)[C@H](Cc2ccccc2)N(C)C(=O)[C@H](C)N(C)C(=O)[C@H](CCCNC(=N)N)NC(=O)[C@H](Cc2ccc(-c3ccccc3)cc2)NC(=O)[C@H](C(C)C)NC(=O)[C@H](Cc2c[nH]c3ccccc23)NC(=O)[C@H](CC(=O)O)NC(=O)[C@H](Cc2ccc(O)cc2)NC(=O)[C@H](CC2CCCCC2)NC(=O)CSC[C@@H](C(=O)NCC(N)=O)NC(=O)[C@H](CO)NC(=O)[C@H](C(C)C)NC1=O` [Example 1248] ({CH2CO}-[Cha]YDWV[Bip]R[NMeA][NMeF]RLVSCG-NH2; thioether N-14), which IC50 is on record?
A: The IC50 was 360 nM.

Q: `CC(C)C[C@@H]1NC(=O)[C@H](CCCNC(=N)N)NC(=O)[C@H]2CCCN2C(=O)[C@H](C)N(C)C(=O)[C@H](C(C)C)NC(=O)[C@H](Cc2ccc(-c3ccccc3)cc2)NC(=O)[C@H](C(C)C)NC(=O)[C@H](Cc2c[nH]c3ccccc23)NC(=O)[C@H](CC(=O)O)NC(=O)[C@H](Cc2ccc(O)cc2)NC(=O)[C@H](Cc2ccccc2)NC(=O)CSC[C@@H](C(=O)N[C@@H](C)C(N)=O)NC(=O)[C@H](CO)NC(=O)[C@H](C(C)C)NC1=O` [Example 1075] ({CH2CO}-FYDWV[Bip]V[NMeA][dP]RLVSCA-NH2; thioether N-14) was tested. Which IC50 did it give?
A: Its IC50 is 200 nM.

Q: For `CC(C)C[C@@H]1NC(=O)[C@H](Cc2c[nH]c3ccccc23)NC(=O)[C@H](CC(=O)O)NC(=O)[C@H](Cc2ccc(O)cc2)NC(=O)[C@H](Cc2ccccc2)NC(=O)CSC[C@@H](C(=O)NCC(N)=O)NC(=O)[C@H](CO)NC(=O)[C@H](C(C)C)NC(=O)[C@H](CC(C)C)NC(=O)[C@H](CC(N)=O)NC(=O)CN(C)C(=O)[C@H](C)N(C)C(=O)[C@H](C(C)C)NC(=O)[C@H](Cc2ccc(-c3ccccc3)cc2)NC1=O` [Example 1001] ({CH2CO}-FYDWL[Bip]V[NMeA][Sar]NLVSCG-NH2; thioether N-14), which IC50 is on record?
A: Its IC50 is 920 nM.

Q: How did the IC50 turn out when `CC(C)C[C@@H]1NC(=O)[C@H](Cc2c[nH]c3ccccc23)NC(=O)[C@H](CC(=O)O)NC(=O)[C@H](Cc2ccc(O)cc2)NC(=O)[C@H](Cc2ccccc2)NC(=O)CSC[C@@H](C(=O)N[C@@H](CCCCN)C(N)=O)NC(=O)[C@H](CO)NC(=O)[C@H](C(C)C)NC(=O)[C@H](CC(C)C)NC(=O)[C@H](CC(N)=O)NC(=O)CN(C)C(=O)[C@H](C)N(C)C(=O)[C@H](C(C)C)NC(=O)[C@H](Cc2ccc(-c3ccccc3)cc2)NC1=O` [Example 1253] ({CH2CO}-FYDWL[Bip]V[NMeA][Sar]NLVSCK-NH2; thioether N-14) was run?
A: The IC50 was 710 nM.

Q: `CC(C)C[C@@H]1NC(=O)[C@H](Cc2c[nH]c3ccccc23)NC(=O)[C@H](CC(=O)O)NC(=O)[C@H](Cc2ccc(O)cc2)NC(=O)[C@H](Cc2ccccc2)NC(=O)CSC[C@@H](C(=O)NCC(N)=O)NC(=O)[C@H](CO)NC(=O)[C@H](C(C)C)NC(=O)[C@H](CC(C)C)NC(=O)[C@H](C(C)C)NC(=O)CN(C)C(=O)[C@H](C)N(C)C(=O)[C@H](CCCNC(=N)N)NC(=O)[C@H](Cc2ccc(-c3ccccc3)cc2)NC1=O` [Example 1232] ({CH2CO}-FYDWL[Bip]R[NMeA][Sar]VLVSCG-NH2; thioether N-14) was tested. Which IC50 did it give?
A: The IC50 was 330 nM.

Q: How did the IC50 turn out when `Cc1cccc(C[C@@H]2NC(=O)[C@H](CC(=O)O)NC(=O)[C@H](Cc3ccc(C(=O)O)cc3)NC(=O)[C@H](Cc3ccc(OCC(=O)O)cc3)NC(=O)CSC[C@@H](C(=O)N[C@@H](C)C(N)=O)NC(=O)[C@H]([C@@H](C)O)NC(=O)[C@H](C(C)C)NC(=O)[C@H](CC3CCCCC3)NC(=O)[C@H](CCN)NC(=O)[C@H](Cc3ccccc3)N(C)C(=O)[C@H](CCCN)NC(=O)[C@H](CCC(=O)O)NC(=O)[C@H](Cc3ccc(-c4ccccc4)cc3)NC(=O)C(C(C)C)NC2=O)c1` (some centres unmarked) [Example 1449] ({CH2CO}-Y(Carboxymethyl)[Phe(4-COOH)]D[Phe(3-Me)][ξV][Bip]E[Orn][NMeF][Dab][Cha]VTCA-NH2; thioether N-14) was run?
A: The IC50 was 30 nM.

Q: Which IC50 does the source give for `CC(C)C[C@@H]1NC(=O)[C@H](Cc2c[nH]c3ccccc23)NC(=O)[C@H](CC(=O)O)NC(=O)[C@H](Cc2ccc(O)cc2)NC(=O)[C@H](Cc2ccccc2)NC(=O)CSC[C@@H](C(=O)N[C@@H](C)C(N)=O)NC(=O)[C@H](CO)NC(=O)[C@H](C(C)C)NC(=O)[C@H](CC(C)C)NC(=O)[C@H](CC(N)=O)NC(=O)[C@H]2Cc3ccccc3CN2C(=O)[C@H](C)N(C)C(=O)[C@H](C(C)C)NC(=O)[C@H](Cc2ccc(-c3ccccc3)cc2)NC1=O` [Example 1049] ({CH2CO}-FYDWL[Bip]V[NMeA][dTic]NLVSCA-NH2; thioether N-14) here?
A: The IC50 was 90 nM.

Q: With `CC(C)C[C@@H]1NC(=O)[C@H](CCCN)NC(=O)[C@H](Cc2ccccc2)N(C)C(=O)[C@H](C)N(C)C(=O)[C@H](CCCNC(=N)N)NC(=O)[C@H](Cc2ccc(-c3ccccc3)cc2)NC(=O)[C@H](C(C)C)NC(=O)[C@H](Cc2c[nH]c3ccccc23)NC(=O)[C@H](CC(=O)O)NC(=O)[C@H](Cc2ccc(O)cc2)NC(=O)[C@H](Cc2ccccc2)NC(=O)CSC[C@@H](C(=O)N[C@@H](CCC(=O)O)C(N)=O)NC(=O)[C@H]([C@@H](C)O)NC(=O)[C@H](C(C)C)NC1=O` [Example 1361] ({CH2CO}-FYDWV[Bip]R[NMeA][NMeF][Orn]LVTCE-NH2; thioether N-14) as the molecule, how does the IC50 read?
A: Its IC50 is 380 nM.

Q: With `Cc1cccc(C[C@@H]2NC(=O)[C@H](CC(=O)O)NC(=O)[C@H](Cc3ccc(O)cc3)NC(=O)[C@H](CC(N)=O)NC(=O)CSC[C@@H](C(=O)N[C@@H](C)C(N)=O)NC(=O)[C@H]([C@@H](C)O)NC(=O)[C@H](C(C)C)NC(=O)[C@H](CC3CCCCC3)NC(=O)[C@H](CCN)NC(=O)[C@H](Cc3ccccc3)N(C)C(=O)[C@H](CCCN)NC(=O)[C@H](CCC(=O)O)NC(=O)[C@H](Cc3ccc(-c4ccccc4)cc3)NC(=O)C(C(C)C)NC2=O)c1` (some centres unmarked) [Example 1447] ({CH2CO}-NYD[Phe(3-Me)][ξV][Bip]E[Orn][NMeF][Dab][Cha]VTCA-NH2; thioether N-14) as the molecule, how does the IC50 read?
A: Its IC50 is 30 nM.

Q: With `CC(C)C[C@@H]1NC(=O)[C@H](Cc2c[nH]c3ccccc23)NC(=O)[C@H](CC(=O)O)NC(=O)[C@H](Cc2ccc(O)cc2)NC(=O)[C@H](Cc2ccccc2)NC(=O)CSC[C@@H](C(=O)N[C@@H](CCC(=O)O)C(N)=O)NC(=O)[C@H](CO)NC(=O)[C@H](C(C)C)NC(=O)[C@H](CC(C)C)NC(=O)[C@H](CC(N)=O)NC(=O)CN(C)C(=O)[C@H](C)N(C)C(=O)[C@H](C(C)C)NC(=O)[C@H](Cc2ccc(-c3ccccc3)cc2)NC1=O` [Example 1251] ({CH2CO}-FYDWL[Bip]V[NMeA][Sar]NLVSCE-NH2; thioether N-14) as the molecule, how does the IC50 read?
A: The IC50 was 360 nM.

Q: Which IC50 does the source give for `CC(C)C[C@@H]1NC(=O)CSC[C@@H](C(=O)NCC(N)=O)NC(=O)[C@H]([C@@H](C)O)NC(=O)[C@H](C(C)C)NC(=O)[C@H](CC(C)C)NC(=O)[C@H](CCCNC(=N)N)NC(=O)[C@H](Cc2ccccc2)N(C)C(=O)[C@H](C)N(C)C(=O)[C@H](CCCNC(=N)N)NC(=O)[C@H](Cc2ccc(-c3ccccc3)cc2)NC(=O)[C@H](C(C)C)NC(=O)[C@H](Cc2c[nH]c3ccccc23)NC(=O)[C@H](CC(=O)O)NC(=O)[C@H](Cc2ccc(O)cc2)NC1=O` [Example 1312] ({CH2CO}-LYDWV[Bip]R[NMeA][NMeF]RLVTCG-NH2; thioether N-14) here?
A: The IC50 was 760 nM.
